Laboratory results published in patent US4396550A, “Dibenz [b,e] oxepin derivatives” (Kyowa Hakko Kogyo Co., Ltd., priority 1980, dated 1983).

Tests used:
[1] = system: blood platelets (platelet-rich plasma); assay: Test for the inhibition of platelet aggregation (collagen-induced, platelet-rich plasma); assay type: cell-based, male white rabbits; details: Oryctolagus cuniculus, Platelet, 0.05 h; depressing ratio of 50% of collagen-induced aggregation; compound 3 minutes before; read-out: Antiplatelet aggregation activity: MED
Description: In this test, 9 vols. of blood are sampled from the caroted artery of male white rabbits weighing 2 to 2.5 kg and placed in a silicon-coated flask containing 1 vol. of 3.8% sodium citrate. The thus obtained blood is centrifuged at 1,000 rpm for 15 minutes to obtain platelet-rich plasma. The aggregation of the blood platelets is observed using an aggregometer, when collagen is added to the platelet-rich plasma to the extent of the final concentration that 50% of platelet aggregation is caused in the presence of 100 γ/ml of aspirin. On the other hand, 3 minutes after administration of the test compounds to the platelet-rich plasma, the same procedure as mentioned above is carried out to observe the aggregation of blood platelet. The test compounds showing a depressing ratio of 50%, compared with the inhibition of aggregation by collagen alone, are concluded to have antiplatelet aggregation activity.

male dd-strain rats = assay: Acute toxicity test (minimum lethal dose); assay type: in vivo; details: mortality for 7 days
Description: Groups of male dd-strain rats (each group consisting of five rats) weighing 20±1 g were used. The compounds of the present invention were administered orally (po: 0.3 mg/g) or intraperitoneally (ip: 0.1 mg/g). The MLD (minimum lethal dose) was calculated from the mortality for 7 days after the administration to obtain the results given in Table 1.

[2] = system: isolated ileum of guinea-pig; assay: Test for anticholinergic effects on the isolated ileum of guinea-pig (acetylcholine contraction, in vitro); parameters: species or system guinea-pig (male Hartly-strain); details: Cavia porcellus, 0.05 h; depressing ratio of 80% or more of acetylcholine contraction; compound 3 minutes before; read-out: Anticholinergic activity: MED (minimum effective dose)
Description: (§1) Male Hartly-strain guinea-pigs weighing about 250 g are killed and the abdomen is opened. The part (2-3 cm in length) of the ileum 10 cm away from the caecum to the pylorus is cut off as a preparation. The preparation is suspended with serre-fine in a Magnus bath containing 10 ml of Tyrode's solution at 32±1° C. under an air bubble. The contraction of the ileum is recorded on Kymograph through hebel when 0.1 ml of acetylcholine at a concentration of 10^-3 g/ml is added to the Tyrode's solution.
(§2) On the other hand, 3 minutes after administration of the test compounds, the same procedure as mentioned above is carried out to record the contraction.

[3] = system: isolated ileum of guinea-pig; assay: Test for antihistaminergic effects on the isolated ileum of guinea-pig (histamine contraction, in vitro); parameters: species or system guinea-pig (male Hartly-strain); details: Cavia porcellus, 0.05 h; depressing ratio of 80% or more of histamine contraction; read-out: Antihistaminergic activity: MED
Description: as §1, §2
In this test, 0.1 ml of histamine at a concentration of 5×10^-3 g/l is used.

Row | SMILES | minimal effective concentration [1] | Acute toxicity: MLD (minimum lethal dose) (male dd-strain rats; ip) | Acute toxicity: MLD (minimum lethal dose) (male dd-strain rats; po) | minimal effective concentration [2] | minimal effective concentration [3]
1 | Cc1ccc2c(c1)C(Nc1ccc3[nH]ccc3c1)c1ccccc1CO2 (stereo not drawn) [Compound 62, 2-methyl-11-(5-indolyl)amino-6,11-dihydrodibenz[b,e]oxepin] | 50 µg/mL | > 100 mg/kg | > 300 mg/kg |  | 
2 | Fc1ccc(C(c2ccc(F)cc2)N2CCN(C3c4ccccc4COc4ccc(F)cc43)CC2)cc1 (stereo not drawn) [Compound 43, 2-fluoro-11-[4-{bis-(4-fluorophenyl)}methyl-1-piperazinyl]-6,11-dihydrodibenz[b,e]oxepin] | 100 µg/mL | > 100 mg/kg | > 300 mg/kg |  | 
3 | CCN1CCCC(NC2c3ccccc3COc3ccc(C)cc32)C1 (stereo not drawn) [Compound 27, 2-methyl-11-(1-ethyl-3-piperidyl)amino-6,11-dihydrodibenz[b,e]oxepin] | 100 µg/mL | > 100 mg/kg | 300 mg/kg | 1 µg/mL | 10 µg/mL
4 | Cc1ccc2c(c1)C(NCCN1CCNCC1)c1ccccc1CO2 (stereo not drawn) [Compound 25, 2-methyl-11-{2-(1-piperazinyl)ethyl}amino-6,11-dihydrodibenz[b,e]oxepin] | 20 µg/mL | > 100 mg/kg | > 300 mg/kg | 10 µg/mL | 10 µg/mL
5 | Fc1ccc2c(c1)C(NCCN(Cc1ccccc1)Cc1ccccc1)c1ccccc1CO2 (stereo not drawn) [Compound 34, 2-fluoro-11-{2-(dibenzylamino)ethyl}amino-6,11-dihydrodibenz[b,e]oxepin] |  | > 100 mg/kg | 300 mg/kg |  | 10 µg/mL
6 | CCN(CC)CCCNC1c2ccccc2COc2c(C)cccc21 (stereo not drawn) [Compound 6, 4-methyl-11-{3-(diethylamino)propyl}amino-6,11-dihydrodibenz[b,e]oxepin] | 20 µg/mL | 100 mg/kg | 300 mg/kg | 3 µg/mL | 10 µg/mL
7 | c1ccc(-c2cccc3c2OCc2ccccc2C3NC2CN3CCC2CC3)cc1 (stereo not drawn) [Compound 57, 4-phenyl-11-(3-quinuclidinyl)amino-6,11-dihydrodibenz[b,e]oxepin] | 10 µg/mL | 100 mg/kg | > 300 mg/kg | 3 µg/mL | 3 µg/mL
8 | Cc1ccc2c(c1)C(NN1CCN(C)CC1)c1ccccc1CO2 (stereo not drawn) [Compound 29, 2-methyl-11-(4-methyl-1-piperazinyl)amino-6,11-dihydrodibenz[b,e]oxepin] | 50 µg/mL | > 100 mg/kg | > 300 mg/kg |  | 10 µg/mL
9 | c1ccc2c(c1)COc1ccc(C3CCCCC3)cc1C2NC1CN2CCC1CC2 (stereo not drawn) [Compound 54, 2-cyclohexyl-11-(3-quinuclidinyl)amino-6,11-dihydrodibenz[b,e]oxepin] |  | 100 mg/kg | > 300 mg/kg | 10 µg/mL | 1 µg/mL
10 | CCN(CC)CCNC1c2ccccc2COc2c(C)cccc21 (stereo not drawn) [Compound 12, 4-methyl-11-{2-(diethylamino)ethyl}amino-6,11-dihydrodibenz[b,e]oxepin] | 10 µg/mL | 100 mg/kg | > 300 mg/kg |  | 
11 | OCCN1CCN(C2c3ccccc3COc3c(-c4ccccc4)cccc32)CC1 (stereo not drawn) [Compound 42, 4-phenyl-11-{4-(2-hydroxyethyl)-1-piperazinyl}-6,11-dihydrodibenz[b,e]oxepin] | 100 µg/mL | > 100 mg/kg | > 300 mg/kg |  | 
12 | Cc1cccc2c1OCc1ccccc1C2N1CCN(CCO)CC1 (stereo not drawn) [Compound 41, 4-methyl-11-{4-(2-hydroxyethyl)-1-piperazinyl}-6,11-dihydrodibenz[b,e]oxepin] | 100 µg/mL | > 100 mg/kg | > 300 mg/kg |  | 
13 | Cc1ccc2c(c1)C(N1CCC3(CC1)OCCO3)c1ccccc1CO2 (stereo not drawn) [Compound 65, 2-methyl-11-(1',3'-dioxoran-2-'spiro-4-piperidino)-6,11-dihydrodibenz[b,e]oxepin] |  | > 100 mg/kg | > 300 mg/kg |  | 10 µg/mL
14 | Cc1ccc2c(c1)C(N1CCN(CCN)CC1)c1ccccc1CO2 (stereo not drawn) [Compound 44, 2-methyl-11-{4-(2-aminoethyl)-1-piperazinyl}-6,11-dihydrodibenz[b,e]oxepin] |  | 100 mg/kg | > 300 mg/kg | 10 µg/mL | 10 µg/mL
15 | Fc1ccc(C(NC2c3ccccc3COc3ccc(F)cc32)c2ccc(F)cc2)cc1 (stereo not drawn) [Compound 31, 2-fluoro-11-{bis-(4-fluorophenyl)methyl}amino-6,11-dihydrodibenz[b,e]oxepin] | 100 µg/mL | > 100 mg/kg | > 300 mg/kg |  | 
16 | CCN(CCN(C)C)C1c2ccccc2COc2ccc(C)cc21 (stereo not drawn) [Compound 64, 2-methyl-11-[N-{2-(dimethylamino)ethyl}-N-ethyl]amino-6,11-dihydrodibenz[b,e]oxepin] |  | > 100 mg/kg | > 300 mg/kg | 10 µg/mL | 10 µg/mL
17 | CCc1ccc2c(c1)C(Nc1cccc3ncccc13)c1ccccc1CO2 (stereo not drawn) [Compound 61, 2-ethyl-11-(5-quinolyl)amino-6,11-dihydrodibenz[b,e]oxepin] |  | > 100 mg/kg | > 300 mg/kg |  | 10 µg/mL
18 | CCN(CC)CCCNC1c2ccccc2COc2ccc(OC)cc21 (stereo not drawn) [Compound 7, 2-methoxy-11-{3-(diethylamino)propyl}amino-6,11-dihydrodibenz[b,e]oxepin] |  | 100 mg/kg | > 300 mg/kg | 0.3 µg/mL | 0.3 µg/mL
19 | CC(CCc1ccccc1)NC1c2ccccc2COc2ccc(F)cc21 (stereo not drawn) [Compound 32, 2-fluoro-11-{(1-methyl-3-phenyl)propyl}amino-6,11-dihydrodibenz[b,e]oxepin] |  | > 100 mg/kg | > 300 mg/kg | 3 µg/mL | 
20 | Fc1ccc2c(c1)C(NCCOC(c1ccccc1)c1ccccc1)c1ccccc1CO2 (stereo not drawn) [Compound 33, 2-fluoro-11-{2-(diphenylmethyloxy)ethyl}amino-6,11-dihydrodibenz[b,e]oxepin] | 100 µg/mL | > 100 mg/kg | > 300 mg/kg |  | 
21 | COc1ccc(CCNC2c3ccccc3COc3ccc(F)cc32)cc1OC (stereo not drawn) [Compound 60, 2-fluoro-11-{2-(3,4-dimethoxyphenyl)ethyl}amino-6,11-dihydrodibenz[b,e]oxepin] |  | > 100 mg/kg | > 300 mg/kg |  | 10 µg/mL
22 | NCCN1CCN(C2c3ccccc3COc3ccc(F)cc32)CC1 (stereo not drawn) [Compound 46, 2-fluoro-11-{4-(2-aminoethyl)-1-piperazinyl}-6,11-dihydrodibenz[b,e]oxepin] | 50 µg/mL | > 100 mg/kg | > 300 mg/kg |  | 1 µg/mL
23 | Fc1ccc2c(c1)C(NCC1COc3ccccc3O1)c1ccccc1CO2 (stereo not drawn) [Compound 30, 2-fluoro-11-{(1,4-benzodioxane-2-)methyl}amino-6,11-dihydrodibenz[b,e]oxepin] |  | > 100 mg/kg | > 300 mg/kg | 10 µg/mL | 10 µg/mL
